# Patent US20140194374A1, “Anthelmintic Formulations and Treatments” (VIRBAC, priority 2011, published 2014)
# System: ML resistant Cooperia strains
# Settings: doses ¼ to ⅓rd lower than the standard label dose (7.5 mg/kg)
# Experimental: Individual faecal samples (for individual egg count and group larval culture) were collected as per protocol at 7 days intervals at Days 7, 14, 21, 28, 35, 42 and 49. […] Weighing was performed at the beginning, middle, and end of 49 day trial.
structure (smiles),measurement,value
c1ccc([C@H]2CN3CCSC3=N2)cc1 [levamisole],Control of ML resistant Cooperia strains,100%
